Holding throughout (assay type): biochemical
Test [1] addresses T1, EGFR (Homo sapiens, UniProt P00533).
T1 construct: Kinases are expressed as either kinase domains or full length constructs; made in house
Put plainly: Kinase inhibition assay (33P transfer), EGFR. The following applies: Table 2, kinase inhibition class; read-out: EGFR-1. From the text: (§1) The inhibitor compounds described herein are screened in the following manner. Kinases suitable for use in the following protocol to determine kinase activity of the compounds described herein include, -but are not limited to: Lck, Lyn, Src, Fyn, Syk, Zap-70, Itk, Tec, Btk, EGFR, ErbB2, Kdr, Flt-1, Flt-3, Tek, c-Met, InsR, and AKT.
(§2) Kinases are expressed as either kinase domains or full length constructs fused to glutathione S-transferase (GST) or polyHistidine tagged fusion proteins in either E. colior Baculovirus-High Five expression systems. They are purified to near homogeneity by affinity chromatography essentially as previously described (Lehr et al., 1996; Gish et al., 1995). In some instances, kinases are co-expressed or mixed with purified or partially purified regulatory polypeptides prior to measurement of activity.
(§3) Kinase activity and inhibition are measured essentially by established protocols (Braunwalder et al., 1996). Briefly, The transfer of ^33PO4 from ATP to the synthetic substrates poly(Glu, Tyr) 4:1 or poly(Arg, Ser) 3:1 attached to the bioactive surface of microtiter plates serves as the basis to evaluate enzyme activity. After an incubation period, the amount of phosphate transferred is measured by first washing the plate with 0.5% phosphoric acid, adding liquid scintillant, and then counting in a liquid scintillation detector. The IC50 is determined by the concentration of compound that causes a 50% reduction in the amount of […] incorporated onto the substrate bound to the plate.

The target of test [2] is T2, AKT (Homo sapiens, UniProt Q9Y243).
T2 construct: Kinases are expressed as either kinase domains or full length constructs; made in house
Put plainly: Kinase inhibition assay (33P transfer), AKT. The conditions noted are these: Table 2, kinase inhibition class; read-out: AKT3-1.
Text: as §1
(§4) Kinases are expressed as either kinase domains or full length constructs fused to glutathione S-transferase (GST) or polyHistidine tagged fusion proteins in either E. colior Baculovirus-High Five expression systems. […] In some instances, kinases are co-expressed or mixed with purified or partially purified regulatory polypeptides prior to measurement of activity.
(§5) Briefly, The transfer of ^33PO4 from ATP to the synthetic substrates poly(Glu, Tyr) 4:1 or poly(Arg, Ser) 3:1 attached to the bioactive surface of microtiter plates serves as the basis to evaluate enzyme activity. After an incubation period, the amount of phosphate transferred is measured by first washing the plate with 0.5% phosphoric acid, adding liquid scintillant, and then counting in a liquid scintillation detector.

The target of test [3] is T3, Lck (Homo sapiens, UniProt P06239).
T3 construct: Kinases are expressed as either kinase domains or full length constructs; made in house
Put plainly: Kinase inhibition assay (33P transfer), Lck. The conditions noted are these: read-out: Lck-1.
Text: as §1, §4, §5

Test [4] has as its target T4, c-Met (Homo sapiens, UniProt P08581).
T4 construct: Kinases are expressed as either kinase domains or full length constructs; made in house
Briefly: Kinase inhibition assay (33P transfer), c-Met. The following applies: Table 2, kinase inhibition class; read-out: Met-1.
Text: as §1, §2, §3

Test [5] addresses T5, Itk (Homo sapiens, UniProt Q08881).
T5 construct: Kinases are expressed as either kinase domains or full length constructs; made in house
T5 sequence (Q08881 1-620): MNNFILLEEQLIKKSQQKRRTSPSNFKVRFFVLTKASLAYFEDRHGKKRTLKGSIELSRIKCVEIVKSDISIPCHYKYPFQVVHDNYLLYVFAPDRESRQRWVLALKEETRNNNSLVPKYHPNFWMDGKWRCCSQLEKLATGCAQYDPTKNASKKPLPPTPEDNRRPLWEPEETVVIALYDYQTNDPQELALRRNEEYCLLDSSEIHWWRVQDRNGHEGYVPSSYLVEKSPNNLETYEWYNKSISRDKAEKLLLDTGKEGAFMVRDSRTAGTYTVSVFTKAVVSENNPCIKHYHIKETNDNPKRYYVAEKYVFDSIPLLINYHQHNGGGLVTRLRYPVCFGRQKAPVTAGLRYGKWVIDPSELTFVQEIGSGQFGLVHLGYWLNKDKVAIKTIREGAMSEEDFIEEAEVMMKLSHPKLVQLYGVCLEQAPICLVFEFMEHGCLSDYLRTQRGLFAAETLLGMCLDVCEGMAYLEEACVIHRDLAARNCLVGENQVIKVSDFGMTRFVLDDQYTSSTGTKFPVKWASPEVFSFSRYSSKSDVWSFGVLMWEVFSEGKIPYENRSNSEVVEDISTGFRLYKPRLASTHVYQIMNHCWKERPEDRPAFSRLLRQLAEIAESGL
Put plainly: Kinase inhibition assay (33P transfer), Itk. The conditions noted are these: read-out: Itk-1.
Text: as §1, §2, §3

Test [6] has as its target T6, Kdr (Homo sapiens, UniProt P35968).
T6 construct: Kinases are expressed as either kinase domains or full length constructs; made in house
Put plainly: Kinase inhibition assay (33P transfer), Kdr. The following applies: read-out: KDR-1.
Text: as §1, §4, §5

The target of test [7] is T7, Zap-70 (Homo sapiens, UniProt P43403).
T7 construct: Kinases are expressed as either kinase domains or full length constructs; made in house
T7 sequence (P43403 1-619): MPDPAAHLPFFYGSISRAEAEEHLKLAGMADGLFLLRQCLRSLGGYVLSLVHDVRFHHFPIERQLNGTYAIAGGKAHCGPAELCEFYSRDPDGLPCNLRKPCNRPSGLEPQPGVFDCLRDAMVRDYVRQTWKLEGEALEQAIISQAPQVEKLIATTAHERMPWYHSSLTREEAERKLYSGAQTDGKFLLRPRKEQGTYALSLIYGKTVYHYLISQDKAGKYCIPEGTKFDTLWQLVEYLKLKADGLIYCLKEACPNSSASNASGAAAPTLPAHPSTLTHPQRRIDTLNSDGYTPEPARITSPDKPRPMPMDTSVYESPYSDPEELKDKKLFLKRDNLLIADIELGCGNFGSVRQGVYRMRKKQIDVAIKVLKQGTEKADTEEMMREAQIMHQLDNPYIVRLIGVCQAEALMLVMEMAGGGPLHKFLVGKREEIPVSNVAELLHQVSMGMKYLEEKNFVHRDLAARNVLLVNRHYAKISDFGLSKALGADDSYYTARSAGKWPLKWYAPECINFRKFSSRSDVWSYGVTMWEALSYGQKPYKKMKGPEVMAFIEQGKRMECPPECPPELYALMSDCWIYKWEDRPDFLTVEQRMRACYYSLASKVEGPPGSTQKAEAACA
Put plainly: Kinase inhibition assay (33P transfer), Zap-70. The conditions noted are these: read-out: Zap-1.
Text: as §1, §4, §5

Where two headings read alike, the source gives them in different places.

T1 sequence (P00533 25-1210, species assumed): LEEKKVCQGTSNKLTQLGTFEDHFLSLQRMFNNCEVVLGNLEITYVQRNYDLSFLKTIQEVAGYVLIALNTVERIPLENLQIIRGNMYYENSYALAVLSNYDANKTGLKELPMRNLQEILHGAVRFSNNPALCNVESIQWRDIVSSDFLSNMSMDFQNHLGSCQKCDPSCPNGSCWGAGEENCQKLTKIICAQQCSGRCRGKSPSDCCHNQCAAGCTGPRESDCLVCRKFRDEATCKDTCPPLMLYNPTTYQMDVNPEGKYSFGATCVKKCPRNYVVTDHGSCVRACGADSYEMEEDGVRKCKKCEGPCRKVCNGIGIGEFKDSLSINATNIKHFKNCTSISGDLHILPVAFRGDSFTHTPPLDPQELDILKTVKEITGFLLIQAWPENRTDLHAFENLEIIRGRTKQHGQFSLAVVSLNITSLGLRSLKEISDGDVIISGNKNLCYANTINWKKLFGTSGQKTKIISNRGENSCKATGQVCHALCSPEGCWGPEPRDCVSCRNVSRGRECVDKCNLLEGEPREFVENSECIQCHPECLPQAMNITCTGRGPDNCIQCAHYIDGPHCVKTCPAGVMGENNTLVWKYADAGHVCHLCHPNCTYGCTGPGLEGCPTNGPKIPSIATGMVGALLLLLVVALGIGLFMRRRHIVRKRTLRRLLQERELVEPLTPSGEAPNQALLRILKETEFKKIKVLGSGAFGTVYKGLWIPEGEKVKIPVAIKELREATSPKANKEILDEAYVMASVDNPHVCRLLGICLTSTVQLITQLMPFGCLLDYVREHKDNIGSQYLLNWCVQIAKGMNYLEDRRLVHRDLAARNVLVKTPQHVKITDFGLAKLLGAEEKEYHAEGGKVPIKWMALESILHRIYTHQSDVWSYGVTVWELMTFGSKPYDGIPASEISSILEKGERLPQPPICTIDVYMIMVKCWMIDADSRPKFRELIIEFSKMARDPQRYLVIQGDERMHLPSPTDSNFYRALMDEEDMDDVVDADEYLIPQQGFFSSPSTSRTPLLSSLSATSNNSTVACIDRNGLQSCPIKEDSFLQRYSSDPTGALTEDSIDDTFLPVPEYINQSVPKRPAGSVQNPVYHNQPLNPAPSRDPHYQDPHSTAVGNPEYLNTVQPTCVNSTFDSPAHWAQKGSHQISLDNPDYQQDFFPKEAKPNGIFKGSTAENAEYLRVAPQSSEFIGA
T3 sequence (P06239 whole entry, species assumed, the tested form may be a part): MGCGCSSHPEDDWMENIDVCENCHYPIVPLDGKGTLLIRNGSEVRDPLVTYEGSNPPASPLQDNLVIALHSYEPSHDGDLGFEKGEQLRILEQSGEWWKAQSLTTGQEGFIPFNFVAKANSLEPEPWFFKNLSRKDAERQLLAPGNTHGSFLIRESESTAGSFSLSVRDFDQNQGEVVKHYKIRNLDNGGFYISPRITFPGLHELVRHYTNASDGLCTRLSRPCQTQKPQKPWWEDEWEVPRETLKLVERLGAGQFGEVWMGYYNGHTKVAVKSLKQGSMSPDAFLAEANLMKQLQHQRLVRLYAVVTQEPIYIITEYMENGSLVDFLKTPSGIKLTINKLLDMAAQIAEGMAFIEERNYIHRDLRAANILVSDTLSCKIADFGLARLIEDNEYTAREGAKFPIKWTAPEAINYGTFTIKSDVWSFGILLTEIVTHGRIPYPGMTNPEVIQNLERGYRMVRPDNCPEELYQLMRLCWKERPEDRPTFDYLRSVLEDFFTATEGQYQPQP
T2 sequence (Q9Y243 whole entry, the tested form may be a part): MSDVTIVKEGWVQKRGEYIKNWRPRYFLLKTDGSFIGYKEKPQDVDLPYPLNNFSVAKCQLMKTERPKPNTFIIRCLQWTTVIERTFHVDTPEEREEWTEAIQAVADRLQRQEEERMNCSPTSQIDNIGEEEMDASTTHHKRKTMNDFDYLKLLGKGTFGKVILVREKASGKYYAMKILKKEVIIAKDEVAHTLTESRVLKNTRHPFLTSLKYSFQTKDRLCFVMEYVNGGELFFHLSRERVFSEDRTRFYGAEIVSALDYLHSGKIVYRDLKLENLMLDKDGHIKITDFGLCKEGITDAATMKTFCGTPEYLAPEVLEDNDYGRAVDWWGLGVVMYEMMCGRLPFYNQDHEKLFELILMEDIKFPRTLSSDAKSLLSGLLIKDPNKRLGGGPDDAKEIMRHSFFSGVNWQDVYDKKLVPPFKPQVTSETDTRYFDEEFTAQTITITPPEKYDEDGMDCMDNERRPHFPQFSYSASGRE
T4 sequence (P08581 25-1390): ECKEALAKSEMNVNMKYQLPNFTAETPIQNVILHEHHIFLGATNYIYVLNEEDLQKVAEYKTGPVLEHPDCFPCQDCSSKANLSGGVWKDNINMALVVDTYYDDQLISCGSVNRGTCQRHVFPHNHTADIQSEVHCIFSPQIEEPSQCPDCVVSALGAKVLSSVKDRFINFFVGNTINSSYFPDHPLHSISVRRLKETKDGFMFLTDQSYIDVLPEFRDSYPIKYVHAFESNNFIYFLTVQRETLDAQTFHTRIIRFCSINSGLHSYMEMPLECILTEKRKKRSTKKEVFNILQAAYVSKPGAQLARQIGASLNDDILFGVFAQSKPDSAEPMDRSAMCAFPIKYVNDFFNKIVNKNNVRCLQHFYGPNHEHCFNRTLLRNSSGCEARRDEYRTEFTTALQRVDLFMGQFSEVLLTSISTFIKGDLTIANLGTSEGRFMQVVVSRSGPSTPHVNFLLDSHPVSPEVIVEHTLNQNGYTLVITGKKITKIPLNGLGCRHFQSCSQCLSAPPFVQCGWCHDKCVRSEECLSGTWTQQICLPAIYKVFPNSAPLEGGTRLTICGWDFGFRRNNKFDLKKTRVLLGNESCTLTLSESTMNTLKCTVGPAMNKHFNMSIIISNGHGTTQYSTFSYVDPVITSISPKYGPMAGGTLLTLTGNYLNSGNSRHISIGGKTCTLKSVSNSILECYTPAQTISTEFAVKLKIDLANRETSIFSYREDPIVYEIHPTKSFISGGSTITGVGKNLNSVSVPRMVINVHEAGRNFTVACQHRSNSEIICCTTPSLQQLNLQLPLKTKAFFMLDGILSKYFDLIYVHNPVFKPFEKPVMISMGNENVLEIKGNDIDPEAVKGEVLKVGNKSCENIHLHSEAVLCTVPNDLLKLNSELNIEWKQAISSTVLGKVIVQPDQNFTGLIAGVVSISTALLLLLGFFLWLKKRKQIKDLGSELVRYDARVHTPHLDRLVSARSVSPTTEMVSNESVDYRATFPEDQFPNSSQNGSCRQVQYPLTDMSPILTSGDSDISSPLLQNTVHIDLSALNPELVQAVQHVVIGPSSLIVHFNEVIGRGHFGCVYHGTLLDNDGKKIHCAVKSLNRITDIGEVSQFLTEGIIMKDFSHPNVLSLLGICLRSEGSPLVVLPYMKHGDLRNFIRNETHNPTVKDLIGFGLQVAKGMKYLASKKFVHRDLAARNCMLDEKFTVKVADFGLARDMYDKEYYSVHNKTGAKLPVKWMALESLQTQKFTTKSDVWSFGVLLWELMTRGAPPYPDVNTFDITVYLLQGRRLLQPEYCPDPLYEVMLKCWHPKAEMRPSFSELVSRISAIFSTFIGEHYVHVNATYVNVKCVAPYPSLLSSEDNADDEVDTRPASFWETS
T6 sequence (P35968 20-1356, species assumed): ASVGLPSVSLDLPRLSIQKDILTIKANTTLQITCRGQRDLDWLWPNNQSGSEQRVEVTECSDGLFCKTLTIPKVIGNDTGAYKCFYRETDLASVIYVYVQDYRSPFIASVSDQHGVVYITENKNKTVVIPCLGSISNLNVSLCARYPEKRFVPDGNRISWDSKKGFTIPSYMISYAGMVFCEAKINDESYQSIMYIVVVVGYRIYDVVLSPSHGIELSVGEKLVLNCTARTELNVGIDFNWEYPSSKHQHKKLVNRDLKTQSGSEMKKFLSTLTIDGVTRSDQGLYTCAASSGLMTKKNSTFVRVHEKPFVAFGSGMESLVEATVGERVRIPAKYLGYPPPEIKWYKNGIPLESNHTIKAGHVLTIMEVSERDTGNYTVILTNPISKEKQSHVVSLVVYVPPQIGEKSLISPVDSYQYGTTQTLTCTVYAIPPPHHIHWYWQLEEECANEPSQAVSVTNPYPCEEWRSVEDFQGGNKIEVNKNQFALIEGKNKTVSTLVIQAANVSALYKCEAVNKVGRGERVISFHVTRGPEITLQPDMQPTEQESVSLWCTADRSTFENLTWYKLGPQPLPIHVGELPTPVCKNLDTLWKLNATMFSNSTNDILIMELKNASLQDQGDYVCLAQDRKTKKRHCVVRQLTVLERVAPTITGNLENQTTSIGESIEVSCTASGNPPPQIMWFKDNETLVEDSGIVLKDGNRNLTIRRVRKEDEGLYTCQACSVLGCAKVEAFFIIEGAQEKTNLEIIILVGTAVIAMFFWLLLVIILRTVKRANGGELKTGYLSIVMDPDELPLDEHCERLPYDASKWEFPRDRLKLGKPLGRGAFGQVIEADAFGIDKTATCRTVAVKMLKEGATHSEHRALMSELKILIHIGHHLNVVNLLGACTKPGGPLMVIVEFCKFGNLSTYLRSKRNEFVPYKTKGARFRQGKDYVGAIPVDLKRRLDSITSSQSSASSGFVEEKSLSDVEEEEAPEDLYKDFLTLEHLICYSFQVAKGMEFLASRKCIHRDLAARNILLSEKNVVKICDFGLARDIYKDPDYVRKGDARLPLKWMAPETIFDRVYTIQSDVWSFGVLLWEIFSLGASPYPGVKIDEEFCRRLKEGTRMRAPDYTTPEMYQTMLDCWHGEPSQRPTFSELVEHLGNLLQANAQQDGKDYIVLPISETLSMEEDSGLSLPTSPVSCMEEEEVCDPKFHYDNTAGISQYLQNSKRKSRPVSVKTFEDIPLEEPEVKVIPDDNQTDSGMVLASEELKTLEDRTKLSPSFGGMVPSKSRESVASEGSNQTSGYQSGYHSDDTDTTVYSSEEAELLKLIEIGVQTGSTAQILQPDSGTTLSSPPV

As for `NC(=O)c1cccc(Nc2ncnc(-n3c(=O)[nH]c4ccccc43)n2)c1` [Compound 420], the IC50 was more than 13 µM in test [1]; more than 13 µM in test [2]; more than 13 µM in test [3] (Table 3); more than 13 µM in test [4]; more than 13 µM in test [5] (Table 3); 1.15 to 6.91 µM in test [6] (Table 3). For the same molecule, the IC50 in test [7] (Table 3) is more than 13 µM.
For the molecule `O=c1[nH]c2ccccc2n1-c1ncnc(Nc2cc(Cl)cc(Cl)c2)n1` [Compound 503], the IC50 in test [1] was more than 12.1 µM; in test [2], more than 12.1 µM; in test [3], 9.38 to 12.1 µM; in test [4], more than 12.1 µM; in test [5], more than 12.1 µM; in test [6] it was more than 12.1 µM. Besides, the IC50 in test [7] fell in the range of 9.38 to 12.1 µM.
With `O=c1[nH]c2ccccc2n1-c1ncnc(Nc2ccc3[nH]ncc3c2)n1` [Compound 685], the IC50 in test [1], in test [2], in test [3], in test [4], in test [5] and in test [6] was more than 13.1 µM in each case. Also, the IC50 in test [7] was more than 13.1 µM.
On to `O=C(Nc1ccc(Nc2ncnc(-n3c(=O)[nH]c4ccccc43)n2)cc1)O[C@@H]1CCOC1` [Compound 454], for which the IC50 in test [1] was more than 10.4 µM; in test [2], more than 10.4 µM; in test [3] (Table 3), 0.923 to 5.54 µM; in test [4] it was 5.54 to 8.08 µM; in test [5] (Table 3), more than 10.4 µM; in test [6] (Table 3), 0.923 to 5.54 µM. Also, in test [7] (Table 3), the IC50 was more than 10.4 µM.
For `Clc1ncnc(Nc2cc(-c3ccccc3)n[nH]2)n1` [Compound 976], the IC50 in test [1], in test [2], in test [3], in test [4], in test [5] and in test [6] was more than 16.5 µM in each case. The IC50 in test [7] is 8.8 to 12.8 µM.
As for `CCOC(=O)C(Cc1cccc(Nc2ncnc(Nc3cc(-c4ccco4)n[nH]3)n2)c1)(NC(C)=O)C(=O)OCC` [Compound 481], the IC50 in test [1] was more than 8.2 µM; in test [2], more than 8.2 µM; in test [3], more than 8.2 µM; in test [4], more than 8.2 µM; in test [5] it was 6.38 to 8.2 µM; in test [6], 0.729 to 4.38 µM. Further, in test [7], the IC50 is more than 8.2 µM.
For `NS(=O)(=O)c1ccc(Nc2ncnc(-n3c(=O)[nH]c4ccccc43)n2)cc1` [Compound 451], the IC50 in test [1] is more than 11.7 µM; in test [2], 9.13 to 11.7 µM; in test [3] (Table 3) it was 1.04 to 6.26 µM; in test [4] it was more than 11.7 µM; in test [5] (Table 3) it was more than 11.7 µM; in test [6] (Table 3) it was 1.04 to 6.26 µM. Also, in test [7] (Table 3), the IC50 is more than 11.7 µM.
For `C#Cc1cccc(Nc2ncnc(-n3c(=O)[nH]c4ccccc43)n2)c1` [Compound 460], the IC50 in test [1] is 1.22 to 7.31 µM; in test [2] it was more than 13.7 µM; in test [3] (Table 3), 10.7 to 13.7 µM; in test [4], 7.31 to 10.7 µM; in test [5] (Table 3), more than 13.7 µM; in test [6] (Table 3), 1.22 to 7.31 µM. The IC50 in test [7] (Table 3) is more than 13.7 µM.
Regarding `O=c1[nH]c2ccccc2n1-c1ncnc(Nc2ccc(F)c(Cl)c2)n1` [Compound 459], the IC50 is more than 12.6 µM in test [1]; more than 12.6 µM in test [2]; more than 12.6 µM in test [3] (Table 3); 6.73 to 9.81 µM in test [4]; more than 12.6 µM in test [5] (Table 3); 1.12 to 6.73 µM in test [6] (Table 3). The IC50 in test [7] (Table 3) is more than 12.6 µM.
Turning to `COc1cc(Nc2ncnc(Nc3[nH]ncc3-c3cccc(Cl)c3)n2)cc(OC)c1OC` [Compound 999], the IC50 in test [1], in test [2], in test [3], in test [4], in test [5] and in test [6] was more than 9.91 µM throughout. Further, the IC50 in test [7] was more than 9.91 µM.
In the case of `COc1ccccc1Nc1ncnc(-n2cccc2)n1` [Compound 279], the IC50 in test [1], in test [3] (Table 3), in test [4], in test [5] (Table 3), in test [6] (Table 3) and in test [7] (Table 3) was more than 16.8 µM throughout.
For the molecule `ClCc1ccccc1Nc1ncnc(-n2cccc2)n1` [Compound 278], the IC50 in test [1], in test [3] (Table 3), in test [4], in test [5] (Table 3), in test [6] (Table 3) and in test [7] (Table 3) was more than 15.7 µM in each case.
In the case of `Nc1ncnc(Nc2cccc(Nc3ncnc(N)n3)c2)n1` [Compound 1027], the IC50 in test [1], in test [3] (Table 3), in test [4], in test [5] (Table 3), in test [6] (Table 3) and in test [7] (Table 3) was more than 15.2 µM throughout.
As to `FC(F)(F)c1ccc(Cl)c(Nc2ncnc(-n3cccc3)n2)c1` [Compound 283], the IC50 in test [1], in test [3] (Table 3), in test [4], in test [5] (Table 3), in test [6] (Table 3) and in test [7] (Table 3) was more than 13.2 µM throughout.
`Nc1ncnc(Nc2cc(Cl)ccc2O)n1` [Compound 1022]: the IC50 in test [1], in test [3] (Table 3), in test [4], in test [5] (Table 3), in test [6] (Table 3) and in test [7] (Table 3) was more than 18.9 µM in each case.
Take `FC(F)(F)c1cccc(Nc2ncnc(-n3cccc3)n2)c1` [Compound 277]: the IC50 in test [1] is more than 14.7 µM; in test [3] (Table 3), more than 14.7 µM; in test [4], more than 14.7 µM; in test [5] (Table 3), more than 14.7 µM; in test [6] (Table 3), 1.31 to 7.86 µM; in test [7] (Table 3), more than 14.7 µM.
With `Nc1ncnc(Nc2nc(-c3ccccc3)cs2)n1` [Compound 1020], the IC50 in test [1], in test [3] (Table 3), in test [4], in test [5] (Table 3), in test [6] (Table 3) and in test [7] (Table 3) was more than 16.6 µM throughout.
Turning to `Clc1ccccc1Nc1ncnc(-n2cccc2)n1` [Compound 280], the IC50 in test [1], in test [3] (Table 3), in test [4], in test [5] (Table 3), in test [6] (Table 3) and in test [7] (Table 3) was more than 16.6 µM in each case.

Values taken from patent US7074789B2, “Kinase inhibitors” (Amgen Inc., priority 1999, dated 2006).
